The values that follow come from US12440496B2, “Natriuretic peptide receptor a agonists useful for the treatment of cardiometabolic diseases, kidney disease and diabetes” (Merck Sharp & Dohme LLC, priority 2019, dated 2025).

Counter-ions that a name gives are not always drawn.

In the assay the target is T1, hNPRA (Homo sapiens, UniProt P16066).
T1 construct: expressed in transfected cells
T1 sequence (P16066 33-1061): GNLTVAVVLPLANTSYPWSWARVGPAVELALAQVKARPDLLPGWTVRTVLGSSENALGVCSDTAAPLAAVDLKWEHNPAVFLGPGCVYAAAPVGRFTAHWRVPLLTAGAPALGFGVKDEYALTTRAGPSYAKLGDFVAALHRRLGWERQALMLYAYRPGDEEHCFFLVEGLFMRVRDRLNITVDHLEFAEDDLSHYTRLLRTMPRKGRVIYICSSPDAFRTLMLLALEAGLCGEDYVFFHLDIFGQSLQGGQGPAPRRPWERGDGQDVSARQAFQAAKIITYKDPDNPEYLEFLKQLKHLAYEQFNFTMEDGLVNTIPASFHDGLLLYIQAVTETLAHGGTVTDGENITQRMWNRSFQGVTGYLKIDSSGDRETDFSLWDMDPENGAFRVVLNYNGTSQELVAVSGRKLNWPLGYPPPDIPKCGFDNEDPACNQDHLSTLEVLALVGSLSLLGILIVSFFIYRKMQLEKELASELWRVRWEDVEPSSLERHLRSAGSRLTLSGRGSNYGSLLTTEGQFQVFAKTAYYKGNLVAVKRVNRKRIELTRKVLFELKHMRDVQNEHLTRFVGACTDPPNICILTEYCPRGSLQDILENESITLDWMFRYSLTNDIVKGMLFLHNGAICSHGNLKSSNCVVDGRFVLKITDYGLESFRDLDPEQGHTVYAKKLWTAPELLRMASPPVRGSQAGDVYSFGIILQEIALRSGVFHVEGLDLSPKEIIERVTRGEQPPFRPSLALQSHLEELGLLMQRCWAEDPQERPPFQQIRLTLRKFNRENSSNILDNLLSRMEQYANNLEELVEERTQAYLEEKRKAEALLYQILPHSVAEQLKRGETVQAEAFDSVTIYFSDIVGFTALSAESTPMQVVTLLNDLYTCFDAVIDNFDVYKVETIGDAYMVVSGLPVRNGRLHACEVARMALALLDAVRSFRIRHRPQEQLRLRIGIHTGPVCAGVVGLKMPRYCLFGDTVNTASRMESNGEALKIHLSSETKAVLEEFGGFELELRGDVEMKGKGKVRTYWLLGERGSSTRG
The assay can be described thus: NPRA Functional Cell Assay (cGMP HTRF, NPRA HEK JumpIn stable cells). The class given is cell-based. Conditions: cGMP production, 1 hour at 37° C., 10-point dose response. In short, it runs like this: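 cGMP HTRF read-out after 1 hour compound treatment at 37° C. of human NPRA-expressing HEK JumpIn cells, 1500 cells/well, in buffer with phosphodiesterase inhibitors IBMX and RO20 (100 uM each). Signal converted to [cGMP] by calibration curve; EC50s fitted by 4-parameter logistic; 50 nM h-ANP as positive response.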
Molecule `CC(C)(C)[C@H]1CCc2nc3sc(C(=O)N[C@H](CCN4CCCCC4)c4ccc(-c5csc(C(=O)O)c5)cc4)cc3cc2C1` (racemic) [Example 6, ammonium;4-[4-[rac-(1R)-3-(1-piperidyl)-1-[rac-(6S)-6-tert-butyl-5,6,7,8-tetrahydrothieno[2,3-b]quinoline-2-carbonyl]amino]propyl] phenyl]thiophene-2-carboxylate] showed an EC50 of 0.877 µM.

`CC1(C)NCCC1NC(=O)c1cccc([C@@H](CCN2CCC(O)CC2)NC(=O)c2nc3cc4c(nc3s2)CC[C@H](C(C)(C)C)C4)c1` (mixture of isomers) [Example 139, rac-(7S)-7-tert-butyl-N-[rac-(1R)-1-[3-[(2,2-dimethylpyrrolidin-3-yl)carbamoyl]phenyl]-3-(4-hydroxy-1-piperidyl)propyl]-5,6,7,8-tetrahydrothiazolo[5,4-b]quinoline-2-carboxamide] came in with an EC50 of 0.219 µM.

`O=C(N[C@H](CCN1CCC(O)CC1)c1ccc(N2CCOC2=O)cc1)c1nc2cc3c(nc2s1)CC[C@H](C1(C(F)(F)F)CC1)C3` [Example 232, (S)-N-((R)-3-(4-hydroxypiperidin-1-yl)-1-(4-(2-oxooxazolidin-3-yl)phenyl)propyl)-7-(1-(trifluoromethyl)cyclopropyl)-5,6,7,8-tetrahydrothiazolo[5,4-b]quinoline-2-carboxamide] registered an EC50 of 2.2 µM. Against the preceding molecule, the EC50 is about 10-fold higher.

`CN(CC[C@@H](NC(=O)c1cc2cc3c(nc2s1)CC[C@H](C(C)(C)C)C3)c1ccc(-c2ccc(=O)[nH]c2)cc1)C1CCCC1` (racemic) [Example 50, cyclopentyl-methyl-[rac-(3R)-3-[4-(6-oxo-1H-pyridin-3-yl)phenyl]-3-[rac-(6S)-6-tert-butyl-5,6,7,8-tetrahydrothieno[2,3-b]quinoline-2-carbonyl]amino]propyl] ammonium;formate] showed an EC50 of 0.696 µM.

`CC(C)(C)[C@H]1CCc2nc3sc(C(=O)N[C@H](CCN4CCCCC4)c4ccc(-c5cn[nH]c5)cc4)cc3cc2C1` (racemic) [Example 5, rac-(6S)-6-tert-butyl-N-[rac-(1R)-3-(1-piperidy])-1-[4-(1H-pyrazol-4-yl)phenyl]propyl]-5,6,7,8-tetrahydrothieno[2,3-b]quinoline-2-carboxamide] displayed an EC50 of 0.777 µM. The EC50 values of the last two molecules are within 1.5-fold of each other.

In turn, `CC(C)(C)[C@H]1CCc2nc3sc(C(=O)N[C@H](CCN)c4ccccc4)cc3cc2C1` [Example 229, (S)-N-((R)-3-amino-1-phenylpropyl)-6-(tert-butyl)-5,6,7,8-tetrahydrothieno[2,3-b]quinoline-2-carboxamide] came in with an EC50 greater than 2 µM.

Regarding `CC(C)(C)[C@H]1CCc2nc3sc(C(=O)N[C@H](CCN4CCC5OCCCC5C4)c4ccc(-c5cnc(O)c(F)c5)cc4)nc3cc2C1` (mixture of isomers) [Example 204, rac-(7S)-7-tert-butyl-N-[rac-(1R)-3-(3,4,4a,5,6,7,8,8a-octahydro-2H-pyrano[3,2-c]pyridin-6-ium-6-yl)-1-[4-(5-fluoro-6-hydroxy-3-pyridyl)phenyl]propyl]-5,6,7,8-tetrahydrothiazolo[5,4-b]quinoline-2-carboxamide; formate], the midpoint of the response, the EC50, lay at 1.29 µM.

The molecule `CC(C)(C)[C@H]1CCc2nc3sc(C(=O)N[C@H](CCN)c4cccc(C(=O)N[C@H]5CCNC5)c4)cc3cc2C1` [Example 225] gave an EC50 of 0.292 µM.

As for `CC(C)(C)[C@H]1CCc2nc3sc(C(=O)N[C@H](CCN[C@H]4C[C@@H](O)[C@@H](O)C4)c4ccc(-c5ccc(=O)[nH]c5)cc4)cc3cc2C1` (racemic) [Example 39, [rac-(3R,4S)-3,4-dihydroxycyclopentyl]-[rac-(3R)-3-[4-(6-oxo-1H-pyridin-3-yl)phenyl]-3-[[rac-(6S)-6-tert-butyl-5,6,7,8-tetrahydrothieno[2,3-b]quinoline-2-carbonyl]amino]propyl] ammonium;formate], the EC50 worked out at 0.655 µM.

In turn, `CC(C)(C)[C@H]1CCc2nc3sc(C(=O)N[C@H](CCN4CCC(O)CC4)c4ccc(N5CCOC5=O)cc4)nc3cc2C1` (racemic) [Example 85] gave an EC50 of 1.02 µM.

As to `COC1CCN(CC[C@@H](NC(=O)c2cc3cc4c(nc3s2)CC[C@H](C(C)(C)C)C4)c2ccc(-c3ccc(=O)[nH]c3)cc2)CC1` (racemic) [Example 63, rac-(6S)-6-tert-butyl-N-[rac-(1R)-3-(4-methoxypiperidin-1-ium-1-yl)-1-[4-(6-oxo-1H-pyridin-3-yl)phenyl]propyl]-5,6,7,8-tetrahydrothieno[2,3-b]quinoline-2-carboxamide;formate], the EC50 was found to be 1.19 µM.

In turn, `CN1CC(NC(=O)c2cccc([C@@H](CCN3CCC[C@H]3CC(=O)O)NC(=O)c3nc4cc5c(nc4s3)CC[C@H](C(C)(C)C)C5)c2)C1` (racemic) [Example 106, 2-[rac-(2S)-1-[rac-(3R)-3-[3-[(1-methylazetidin-1-ium-3-yl)carbamoyl]phenyl]-3-[rac-(7S)-7-tert-butyl-5,6,7,8-tetrahydrothiazolo[5,4-b]quinoline-2-carbonyl]amino]propyl] pyrrolidin-2-yl]acetic acid; 2,2,2-trifluoroacetate] returned an EC50 of 0.521 µM.

`COC(=O)C1CN(C(=O)c2cccc([C@@H](CCN3CCC(O)CC3)NC(=O)c3nc4cc5c(nc4s3)CC[C@H](C(C)(C)C)C5)c2)CCO1` (mixture of isomers) [Example 160, methyl 4-[3-[rac-(1R)-3-(4-hydroxy-1-piperidyl)-1-[[rac-(7S)-7-tert-butyl-5,6,7,8-tetrahydrothiazolo[5,4-b]quinoline-2-carbonyl]amino]propyl]benzoyl]morpholine-2-carboxylate]: the EC50 turned out to be 1.21 µM.

In the case of `CC(C)(C)[C@H]1CCc2nc3sc(C(=O)N[C@H](CCN4CCC(O)CC4)c4cccc(C(=O)N5CC(CN6CCCC6)C5)c4)nc3cc2C1` (racemic) [Example 132, rac-(7S)-7-tert-butyl-N-[rac-(1R)-3-(4-hydroxy-1-piperidyl)-1-[3-[3-(pyrrolidin-1-ylmethyl)azetidine-1-carbonyl]phenyl]propyl]-5,6,7,8-tetrahydrothiazolo[5,4-b]quinoline-2-carboxamide], a half-maximal effect (EC50) was put at 0.102 µM. This EC50 lies about 12-fold lower than the previous one.

Take `CC(C)(C)[C@H]1CCc2nc3sc(C(=O)N[C@H](CCN4CCCC(c5cccnc5)C4)c4cccc(NS(C)(=O)=O)c4)cc3cc2C1` (mixture of isomers) [Example 18, ammonium; methylsulfonyl-[3-[rac-(1R)-3-[3-(3-pyridyl)-1-piperidyl]-1-[rac-(6S)-6-tert-butyl-5,6,7,8-tetrahydrothieno[2,3-b]quinoline-2-carbonyl]amino]propyl]phenyl]azanide]: the EC50 stood at 1.28 µM.

The molecule `CC(C)(C)[C@H]1CCc2nc3sc(C(=O)N[C@H](CCN4CCC(O)CC4)c4ccc(N5CC(=O)NC5=O)nc4)nc3cc2C1` [Example 220, (S)-7-(tert-butyl)-N-((R)-1-(6-(2,4-dioxoimidazolidin-1-yl)pyridin-3-yl)-3-(4-hydroxypiperidin-1-yl)propyl)-5,6,7,8-tetrahydrothiazolo[5,4-b]quinoline-2-carboxamide] registered an EC50 of 0.277 µM.

In turn, `COC(=O)C1CCN(CC[C@@H](NC(=O)c2nc3cc4c(nc3s2)CC[C@H](C(C)(C)C)C4)c2cccc(C(=O)NC3CN(C)C3)c2)CC1` (racemic) [Example 114, methyl 1-[rac-(3R)-3-[3-[(1-methylazetidin-1-ium-3-yl)carbamoyl]phenyl]-3-[[rac-(7S)-7-tert-butyl-5,6,7,8-tetrahydrothiazolo[5,4-b]quinoline-2-carbonyl]amino]propyl] piperidine-4-carboxylate; 2,2,2-trifluoroacetate] returned an EC50 of 0.671 µM.

The molecule `CN1CC(NC(=O)c2cccc([C@@H](CCN3CC[C@H](C(=O)O)C3)NC(=O)c3nc4cc5c(nc4s3)CC[C@H](C(C)(C)C)C5)c2)C1` (racemic) [Example 113, rac-(3S)-1-[rac-(3R)-3-[3-[(1-methylazetidin-1-ium-3-yl)carbamoyl]phenyl]-3-[[rac-(7S)-7-tert-butyl-5,6,7,8-tetrahydrothiazolo[5,4-b]quinoline-2-carbonyl]amino]propyl]pyrrolidine-3-carboxylic acid; 2,2,2-trifluoroacetate] yielded an EC50 of 0.939 µM. The EC50 values of the last two molecules are within 1.5-fold of each other.

`CC(C)[C@]1(F)CCc2nc3sc(C(=O)N[C@H](CCN4CCC(O)CC4)c4ccc(-c5ccnnc5)nc4)nc3cc2C1` [Example 265, (S)-7-fluoro-N-((R)-3-(4-hydroxypiperidin-1-yl)-1-(6-(pyridazin-4-yl)pyridin-3-yl)propyl)-7-isopropyl-5,6,7,8-tetrahydrothiazolo[5,4-b]quinoline-2-carboxamide] gave an EC50 of 0.248 µM.
